Remaining activity data for two compounds are collected here from doi:10.1101/2024.08.13.607785v1 (biorxiv, 2024).

Like-named read-outs stand apart in the source and are kept apart here.

Assay in all cases: biochemical
Test [1] concerns the target Mitogen-activated protein kinase kinase kinase 15 ; MAP3K15 ; Q6ZN16 (Homo sapiens, UniProt Q6ZN16). The arrangement: species or system human cell line lysate.
Test [2] concerns the target Serine/threonine-protein kinase RIO2 ; RIOK2 ; Q9BVS4 (Homo sapiens, UniProt Q9BVS4). Set-up: species or system human cell line lysate.
Test [3] deals with Serine/threonine-protein kinase ULK3 ; ULK3 ; Q6PHR2 (Homo sapiens, UniProt Q6PHR2). The arrangement: species or system human cell line lysate.
For test [4], the target named is Serine/threonine-protein kinase D1 ; PRKD1 ; Q15139 (Homo sapiens, UniProt Q15139). The arrangement: species or system human cell line lysate.
The target of test [5] is Glycosaminoglycan xylosylkinase ; FAM20B ; O75063 (Homo sapiens, UniProt O75063). The arrangement: species or system human cell line lysate.
Test [6] concerns the target Isoform 4 of Serine/threonine-protein kinase Nek2 ; NEK2 ; P51955-4 (Homo sapiens, UniProt P51955). Set-up: species or system human cell line lysate.
Test [7] has as its target Calcium/calmodulin-dependent protein kinase kinase 2 ; CAMKK2 ; Q96RR4 (Homo sapiens, UniProt Q96RR4). Set-up: species or system mixed lysate of K562, MV4-11, THP-1, NCI-H1155.
The target of test [8] is Cyclin-dependent kinase 4 ; CDK4 ; P11802 (Homo sapiens, UniProt P11802). Set-up: species or system mixed lysate of K562, MV4-11, THP-1, NCI-H1155.
For test [9], the target named is Isoform 2 of Cyclin-dependent kinase 17 ; CDK17 ; Q00537-2 (Homo sapiens, UniProt Q00537). Set-up: species or system mixed lysate of K562, MV4-11, THP-1, NCI-H1155.
Test [10] deals with Mast/stem cell growth factor receptor Kit ; KIT ; P10721 (Homo sapiens, UniProt P10721). Set-up: species or system mixed lysate of K562, MV4-11, THP-1, NCI-H1155.
For test [11], the target named is T1, Discoidin domain-containing receptor 2 ; DDR2 ; Q16832 (Homo sapiens, UniProt Q16832).
T1 sequence (Q16832 1-855): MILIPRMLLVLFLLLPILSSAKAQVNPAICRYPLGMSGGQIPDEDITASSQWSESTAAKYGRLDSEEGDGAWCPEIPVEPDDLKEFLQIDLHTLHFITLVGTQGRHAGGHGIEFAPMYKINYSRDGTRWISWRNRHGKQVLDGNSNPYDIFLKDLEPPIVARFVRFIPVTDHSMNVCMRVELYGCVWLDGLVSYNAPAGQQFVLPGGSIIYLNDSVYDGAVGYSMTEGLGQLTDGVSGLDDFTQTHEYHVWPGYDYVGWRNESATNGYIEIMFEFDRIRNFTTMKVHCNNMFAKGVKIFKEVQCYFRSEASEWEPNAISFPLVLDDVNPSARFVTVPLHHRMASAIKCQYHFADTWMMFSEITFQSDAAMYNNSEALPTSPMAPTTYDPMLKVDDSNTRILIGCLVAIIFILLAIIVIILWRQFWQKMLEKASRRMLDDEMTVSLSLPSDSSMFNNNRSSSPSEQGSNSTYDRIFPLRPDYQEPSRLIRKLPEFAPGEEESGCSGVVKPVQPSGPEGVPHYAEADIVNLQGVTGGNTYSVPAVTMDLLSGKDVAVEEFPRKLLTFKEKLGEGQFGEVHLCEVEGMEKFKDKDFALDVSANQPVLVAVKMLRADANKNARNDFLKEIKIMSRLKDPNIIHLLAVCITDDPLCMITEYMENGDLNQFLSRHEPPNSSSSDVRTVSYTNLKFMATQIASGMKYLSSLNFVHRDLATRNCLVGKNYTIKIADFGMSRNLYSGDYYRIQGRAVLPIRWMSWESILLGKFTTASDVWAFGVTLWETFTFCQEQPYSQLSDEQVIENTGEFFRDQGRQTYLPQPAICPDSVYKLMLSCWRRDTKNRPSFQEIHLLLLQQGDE
Set-up: species or system mixed lysate of K562, MV4-11, THP-1, NCI-H1155.

The target of test [12] is Isoform 2 of Glycogen synthase kinase-3 beta ; GSK3B ; P49841-2 (Homo sapiens, UniProt P49841). Set-up: species or system mixed lysate of K562, MV4-11, THP-1, NCI-H1155.
Test [13] has as its target Cyclin-dependent kinase 9 ; CDK9 ; P50750 (Homo sapiens, UniProt P50750). The arrangement: species or system mixed lysate of K562, MV4-11, THP-1, NCI-H1155.
For test [14], the target named is Cyclin-dependent kinase 16 ; CDK16 ; Q00536 (Homo sapiens, UniProt Q00536). The arrangement: species or system mixed lysate of K562, MV4-11, THP-1, NCI-H1155.
Test [15] addresses Isoform 4 of TRAF2 and NCK-interacting protein kinase ; TNIK ; Q9UKE5-4 (Homo sapiens, UniProt Q9UKE5). Set-up: species or system mixed lysate of K562, MV4-11, THP-1, NCI-H1155.
Setting [16] is: read-out: BAY-1143572 (10 µM) / %Intensity relative to DMSO.
Setting [17] is: read-out: BAY-1251152 (10 µM) / %Intensity relative to DMSO.

Chain of Serine/threonine-protein kinase ULK3 ; ULK3 ; Q6PHR2 (Q6PHR2 whole entry, one chain of several): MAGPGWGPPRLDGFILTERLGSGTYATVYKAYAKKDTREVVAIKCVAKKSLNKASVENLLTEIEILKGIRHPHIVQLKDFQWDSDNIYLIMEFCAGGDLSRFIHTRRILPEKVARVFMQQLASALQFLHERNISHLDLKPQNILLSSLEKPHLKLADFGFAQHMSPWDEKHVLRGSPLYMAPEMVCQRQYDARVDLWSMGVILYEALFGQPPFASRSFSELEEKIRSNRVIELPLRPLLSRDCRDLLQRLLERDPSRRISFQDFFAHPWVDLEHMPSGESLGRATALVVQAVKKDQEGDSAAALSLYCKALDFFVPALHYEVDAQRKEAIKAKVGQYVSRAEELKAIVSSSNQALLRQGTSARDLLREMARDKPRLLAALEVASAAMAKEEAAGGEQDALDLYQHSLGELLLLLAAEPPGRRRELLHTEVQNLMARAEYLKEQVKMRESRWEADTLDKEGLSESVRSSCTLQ
Chain of Isoform 2 of Glycogen synthase kinase-3 beta ; GSK3B ; P49841-2 (P49841 whole entry, canonical isoform): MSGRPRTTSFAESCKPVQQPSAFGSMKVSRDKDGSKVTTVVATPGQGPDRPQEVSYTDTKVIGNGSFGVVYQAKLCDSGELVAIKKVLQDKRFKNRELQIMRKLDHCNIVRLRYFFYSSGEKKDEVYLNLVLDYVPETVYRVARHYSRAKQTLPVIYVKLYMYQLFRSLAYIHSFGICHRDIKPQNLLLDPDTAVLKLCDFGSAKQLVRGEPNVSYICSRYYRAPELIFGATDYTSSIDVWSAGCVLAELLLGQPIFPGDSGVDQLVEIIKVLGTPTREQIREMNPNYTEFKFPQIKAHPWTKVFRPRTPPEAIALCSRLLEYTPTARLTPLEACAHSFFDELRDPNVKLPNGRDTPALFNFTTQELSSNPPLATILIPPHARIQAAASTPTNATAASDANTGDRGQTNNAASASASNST
Chain of Isoform 2 of Cyclin-dependent kinase 17 ; CDK17 ; Q00537-2 (Q00537 whole entry, canonical isoform, one chain of several): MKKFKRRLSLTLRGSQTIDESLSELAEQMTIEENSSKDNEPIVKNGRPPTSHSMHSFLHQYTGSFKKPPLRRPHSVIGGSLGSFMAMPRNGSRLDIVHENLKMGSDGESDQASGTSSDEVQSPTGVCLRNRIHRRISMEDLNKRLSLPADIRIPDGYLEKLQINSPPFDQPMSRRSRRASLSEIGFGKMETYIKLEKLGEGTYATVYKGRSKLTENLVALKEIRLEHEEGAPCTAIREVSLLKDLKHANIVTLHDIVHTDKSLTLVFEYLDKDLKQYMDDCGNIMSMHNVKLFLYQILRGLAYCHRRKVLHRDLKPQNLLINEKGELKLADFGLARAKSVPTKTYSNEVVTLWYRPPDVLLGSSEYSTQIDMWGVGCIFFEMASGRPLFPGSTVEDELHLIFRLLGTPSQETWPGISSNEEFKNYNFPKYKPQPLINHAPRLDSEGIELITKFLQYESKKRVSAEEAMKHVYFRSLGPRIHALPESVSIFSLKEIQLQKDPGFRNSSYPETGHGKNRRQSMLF
Chain of Cyclin-dependent kinase 4 ; CDK4 ; P11802 (P11802 whole entry, canonical isoform, one chain of several): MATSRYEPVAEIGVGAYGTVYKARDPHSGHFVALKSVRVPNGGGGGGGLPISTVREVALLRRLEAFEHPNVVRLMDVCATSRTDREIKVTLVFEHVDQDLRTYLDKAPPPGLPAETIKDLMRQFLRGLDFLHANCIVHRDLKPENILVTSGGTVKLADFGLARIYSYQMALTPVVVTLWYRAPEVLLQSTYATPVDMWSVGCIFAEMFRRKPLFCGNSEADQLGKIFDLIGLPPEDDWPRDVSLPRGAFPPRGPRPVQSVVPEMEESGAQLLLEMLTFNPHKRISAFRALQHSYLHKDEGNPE
Chain of Glycosaminoglycan xylosylkinase ; FAM20B ; O75063 (O75063 whole entry, canonical isoform): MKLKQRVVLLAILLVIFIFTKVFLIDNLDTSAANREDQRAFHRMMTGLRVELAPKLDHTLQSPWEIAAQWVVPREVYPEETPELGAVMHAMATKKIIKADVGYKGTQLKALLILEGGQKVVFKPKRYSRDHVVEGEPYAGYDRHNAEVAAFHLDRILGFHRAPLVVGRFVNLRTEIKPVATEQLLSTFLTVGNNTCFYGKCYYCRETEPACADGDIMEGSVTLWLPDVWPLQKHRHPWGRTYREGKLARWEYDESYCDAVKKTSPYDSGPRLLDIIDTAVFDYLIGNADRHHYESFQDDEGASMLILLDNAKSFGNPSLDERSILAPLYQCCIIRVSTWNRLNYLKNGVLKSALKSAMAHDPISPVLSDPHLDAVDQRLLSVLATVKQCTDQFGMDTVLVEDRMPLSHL
Chain of Isoform 4 of Serine/threonine-protein kinase Nek2 ; NEK2 ; P51955-4 (P51955 whole entry, canonical isoform, one chain of several): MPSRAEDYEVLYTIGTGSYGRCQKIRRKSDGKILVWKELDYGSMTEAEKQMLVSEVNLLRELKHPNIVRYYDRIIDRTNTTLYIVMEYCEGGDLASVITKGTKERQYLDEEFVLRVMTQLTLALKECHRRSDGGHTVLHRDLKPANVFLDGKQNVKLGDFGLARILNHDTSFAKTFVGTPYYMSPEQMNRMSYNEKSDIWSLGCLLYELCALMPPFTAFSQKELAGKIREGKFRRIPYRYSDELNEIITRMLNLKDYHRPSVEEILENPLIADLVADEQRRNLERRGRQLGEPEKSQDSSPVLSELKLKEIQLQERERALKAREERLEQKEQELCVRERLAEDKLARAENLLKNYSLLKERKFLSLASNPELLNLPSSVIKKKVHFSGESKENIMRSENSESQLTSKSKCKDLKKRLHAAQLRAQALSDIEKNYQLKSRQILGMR
Chain of Serine/threonine-protein kinase RIO2 ; RIOK2 ; Q9BVS4 (Q9BVS4 whole entry, one chain of several): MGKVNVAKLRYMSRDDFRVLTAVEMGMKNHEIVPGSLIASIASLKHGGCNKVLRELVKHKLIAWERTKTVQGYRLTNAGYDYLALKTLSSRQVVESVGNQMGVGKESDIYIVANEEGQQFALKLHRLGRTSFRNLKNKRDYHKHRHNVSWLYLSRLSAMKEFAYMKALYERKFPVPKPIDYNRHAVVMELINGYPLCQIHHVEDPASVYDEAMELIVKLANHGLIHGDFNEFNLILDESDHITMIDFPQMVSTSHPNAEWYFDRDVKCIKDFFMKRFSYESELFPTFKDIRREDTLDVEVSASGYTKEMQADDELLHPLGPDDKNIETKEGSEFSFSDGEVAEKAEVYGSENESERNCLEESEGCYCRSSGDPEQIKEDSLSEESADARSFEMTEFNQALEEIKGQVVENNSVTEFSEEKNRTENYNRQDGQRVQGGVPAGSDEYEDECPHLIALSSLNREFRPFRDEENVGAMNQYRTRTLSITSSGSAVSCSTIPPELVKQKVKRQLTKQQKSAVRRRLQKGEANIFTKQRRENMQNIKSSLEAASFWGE
Chain of Calcium/calmodulin-dependent protein kinase kinase 2 ; CAMKK2 ; Q96RR4 (Q96RR4 whole entry, one chain of several): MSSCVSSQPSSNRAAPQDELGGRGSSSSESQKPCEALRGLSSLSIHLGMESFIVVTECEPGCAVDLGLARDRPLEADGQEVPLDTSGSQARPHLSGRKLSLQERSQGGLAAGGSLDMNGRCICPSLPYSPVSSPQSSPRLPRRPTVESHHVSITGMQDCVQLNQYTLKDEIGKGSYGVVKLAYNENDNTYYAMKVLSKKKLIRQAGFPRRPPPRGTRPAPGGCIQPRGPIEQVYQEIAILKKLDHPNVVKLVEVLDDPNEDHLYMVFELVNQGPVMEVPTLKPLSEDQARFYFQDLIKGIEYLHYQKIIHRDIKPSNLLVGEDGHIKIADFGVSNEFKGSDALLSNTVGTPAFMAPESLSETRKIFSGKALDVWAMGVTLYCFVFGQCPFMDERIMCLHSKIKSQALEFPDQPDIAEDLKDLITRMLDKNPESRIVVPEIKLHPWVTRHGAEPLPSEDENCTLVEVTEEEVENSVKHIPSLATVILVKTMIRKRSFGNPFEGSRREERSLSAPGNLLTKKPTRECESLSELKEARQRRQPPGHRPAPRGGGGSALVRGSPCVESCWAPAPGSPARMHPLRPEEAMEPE
Chain of Cyclin-dependent kinase 9 ; CDK9 ; P50750 (P50750 whole entry, one chain of several): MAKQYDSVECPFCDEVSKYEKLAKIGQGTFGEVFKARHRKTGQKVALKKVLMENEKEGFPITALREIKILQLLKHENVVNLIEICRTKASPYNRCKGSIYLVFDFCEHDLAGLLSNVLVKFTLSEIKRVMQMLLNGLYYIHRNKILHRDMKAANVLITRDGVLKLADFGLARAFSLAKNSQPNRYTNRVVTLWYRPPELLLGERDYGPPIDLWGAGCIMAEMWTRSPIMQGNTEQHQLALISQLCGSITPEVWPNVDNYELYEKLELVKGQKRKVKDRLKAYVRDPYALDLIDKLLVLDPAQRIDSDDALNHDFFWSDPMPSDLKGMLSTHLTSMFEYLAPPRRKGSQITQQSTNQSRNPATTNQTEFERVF
Chain of Cyclin-dependent kinase 16 ; CDK16 ; Q00536 (Q00536 whole entry, canonical isoform, one chain of several): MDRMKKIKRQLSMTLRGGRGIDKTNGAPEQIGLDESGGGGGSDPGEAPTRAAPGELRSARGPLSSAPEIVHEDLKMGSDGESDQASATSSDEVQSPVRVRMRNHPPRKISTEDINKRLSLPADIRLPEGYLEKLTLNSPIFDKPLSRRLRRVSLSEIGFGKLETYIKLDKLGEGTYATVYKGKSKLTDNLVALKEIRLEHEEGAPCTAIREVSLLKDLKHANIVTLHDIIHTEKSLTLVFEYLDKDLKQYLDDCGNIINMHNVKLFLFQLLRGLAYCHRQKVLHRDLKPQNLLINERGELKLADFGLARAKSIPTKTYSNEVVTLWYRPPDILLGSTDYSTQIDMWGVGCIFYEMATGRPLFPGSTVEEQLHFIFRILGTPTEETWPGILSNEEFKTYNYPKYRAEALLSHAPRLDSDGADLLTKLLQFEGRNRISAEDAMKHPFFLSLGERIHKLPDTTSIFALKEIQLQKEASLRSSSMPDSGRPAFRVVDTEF

Turning to `COc1cc(F)ccc1-c1ncnc(Nc2cccc(C[S@](C)(=N)=O)c2)n1` [BAY-1143572], the remaining activity at 10 µM in test [1] (setting [16]) came out at 91.7%; in [2] (setting [16]), 123%; in test [3] (setting [16]) it was 93.7%; in [4] (setting [16]) it was 155%; in test [5] (setting [16]) it was 141%; in test [6] (setting [16]), 115%. The remaining activity at 10 µM in test [7] (setting [16]) amounted to 50.1%; in test [8] (setting [16]), 133%; in test [9] (setting [16]) it was 66.1%; in test [10] (setting [16]), 24.3%; in [11] (setting [16]), 72.3%; in test [12] (setting [16]), 7.95%. Also, the remaining activity at 10 µM in test [13] (setting [16]) was found to be 3.85%; in test [14] (setting [16]), 58.1%; in test [15] (setting [16]), 78.3%.

For the compound `COc1cc(F)ccc1-c1cc(Nc2cc(CS(C)(=N)=O)ccn2)ncc1F` (stereo not drawn) [BAY-1251152], the remaining activity at 10 µM is 95% in test [1] (setting [17]); 111% in test [2] (setting [17]); 94.5% in test [3] (setting [17]); 154% in test [4] (setting [17]); 123% in test [5] (setting [17]); 114% in [6] (setting [17]). Moreover, the remaining activity at 10 µM worked out at 29.2% in [7] (setting [17]); 121% in test [8] (setting [17]); 49.4% in [9] (setting [17]); 102% in [10] (setting [17]); 38.5% in test [11] (setting [17]); 11.9% in test [12] (setting [17]). For the same compound, the remaining activity at 10 µM is 2.79% in test [13] (setting [17]), 25.7% in test [14] (setting [17]) and 37.2% in [15] (setting [17]).
